Read-outs that look alike come from different tables or passages of the source.
Tests used:
[1] = Pre-clinical GLP and non-GLP toxicity and safety studies; type: in vivo
Method: Various pre-clinical GLP (Good Laboratory Practice) and non-GLP studies were performed with the compound of Formula E. These included 7-day and 28- days studies on rats and dogs, acute toxicity in rats, mice and dogs. The effect of the compound of Formula E on respiratory function, nervous system and cardiovascular system, bacterial mutation, metabolism, CaCo2 permeability, protein binding and cytochrome effect was also studied.

SARS-CoV-2 = test: Antiviral screening by qRT-PCR in VeroE6 cells; type: cell-based; settings: Severe acute respiratory syndrome coronavirus 2, Vero C1008, 10 μM
[2] = Cytotoxicity by Hoechst 33342 / Sytox orange staining; type: cell-based; settings: African green monkey, Vero E6 cells
Method: The assay was done in a 96 well plate format in 3 wells for each sample. 1×10e4 Vero E6 cells were plated per well and incubated at 37° C. overnight for monolayer formation. Next day, cells were incubated with the test substance (TS) at the indicated concentration with final DMSO concentration being 0.5%. The Control cells were incubated with 0.5% DMSO only. 24 and 48 hours later, cells were stained with Hoechst 33342 and Sytox orange dye. Images were taken at 10×, 16 images per well, which covers 90% of the well area using ImageXpress Microconfocal (Molecular Devices). Hoechst 33342 nucleic acid stain is a popular cell-permanent nuclear counterstain that emits blue fluorescence when bound to dsDNA. It stains all the live and dead cells. Sytox orange dye stains the nucleic acid in the cells with compromised membranes. This stain is an indicator of cell death. First, the software will count total number of cells in the Hoechst image. In the Sytox image, it will count, among Hoechst positive cells, how many cells are positive for Sytox.

Question: For `COC1COC(Oc2ccc(-c3ccc4c(c3)OCO4)c3ccccc23)C(O)C1OC` (centres unmarked) [Compound of Formula E, 2-(1-(benzo[d][1,3]dioxol-5-yl)naphthalen-4-yloxy)-tetrahydro-4,5-dimethoxy-2H-pyran-3-ol], which “toxic or adverse effect at higher dose” value ([1]; 2000 mg/kg in rats, mice and dogs) is on record?
Answer: did not show any toxic or adverse effect

Question: What about the “toxicity in pre-clinical studies” value ([1]; 7-day and 28-days studies on rats and dogs, acute toxicity in rats, mice and dogs) of the same compound?
Answer: non-toxic

Question: And the clastogenicity ([1]; in vivo)?
Answer: non-clastogenic

Question: And the “effect on the respiratory, nervous and cardiovascular system” value ([1]; in vivo)?
Answer: no effect

Question: What about the logP (physchem) of the same compound?
Answer: ~4

Question: What about the inhibition at 10 µM (SARS-CoV-2; 24 hours post infection, E gene, read-out: % inhibition of virus replication 24 hours post infection E) of the same compound?
Answer: 75.4%

Question: What about the inhibition at 10 µM (SARS-CoV-2; 24 hours post infection, N gene, read-out: % inhibition of virus replication 24 hours post infection N) of the same compound?
Answer: 81.3%

Question: And the inhibition at 10 µM (SARS-CoV-2; 48 hours post infection, E gene, read-out: % inhibition of virus replication 48 hours post infection E)?
Answer: 99.5%

Question: And the inhibition at 10 µM (SARS-CoV-2; 48 hours post infection, N gene, read-out: % inhibition of virus replication 48 hours post infection N)?
Answer: 99.7%

Question: What about the viability at 24 h, 10 µM ([2]; 24 hours, read-out: % Cell viability 24 hours) of the same compound?
Answer: 99.6%

Question: What about the viability at 48 h, 10 µM ([2]; 48 hours, read-out: % Cell viability 48 hours) of the same compound?
Answer: 77.8%

Source: patent US20230172958A1, “USE OF COMPOUNDS FOR TREATING VIRAL INFECTIONS” (priority 2020, published 2023)
